In patent US20220280493A1 (priority 2021, published 2022):

Tests used:
"Long-Haul" Covid-19 = assay: Treatment of "Long-Haul" Covid-19 symptoms in the same patient; type: in vivo, human; settings: for effect of added direct intranasal/lung inhalation: 0.1 ml of the 6% solution, 1-2 times/day
Protocol: After patient had discontinued treatment above for several weeks after the first round of disease, subsequent putative recurrent post-acute (“long-haul”) symptoms of Covid-19. These included malaise, fatigue, brain fog, myalgia and musculoskeletal pain, and shortness of breath. […] Treatment was titrated to a clinical response, with a maximum dose of 200 mg/day of Tempol. […] At two such interludes, in place of the Tempol, patient took 100 mg of phenylbutylnitrone (PBN).

Covid-19, Omicron strain = assay: Treatment of "Break-Thru" Covid-19 infection in the same patient; type: in vivo, human
[1] = tested on: nonrespiratory coronavirus unrelated to SARS-CoV-2; settings: induced by a nonrespiratory coronavirus; cited from earlier work

Structure (SMILES): CC(C)(C)[N+]([O-])=Cc1ccccc1 [PBN, 1-alpha-phenyl-tert-butyl nitrone]
- long-haul symptoms, oral treatment in place of Tempol ("Long-Haul" Covid-19; 100 mg, at two interludes): some subjective clearing of symptoms
- long-haul symptoms, nasal/pulmonary inhalation ("Long-Haul" Covid-19; 0.1 ml of a 5% solution in water 3-4 times per day): significant symptomatic relief
- alleviation of upper respiratory symptoms, alternative intranasal treatments (Covid-19, Omicron strain; intranasal 3% gel (Q-tip) or insufflation of 0.2 ml of 3% solution, compared with 6% Tempol spray): effective but the response was slower

Structure (SMILES): CC1(C)CC(O)CC(C)(C)N1[O] [Tempol, 4-hydroxy-TEMPO]
- effect of added direct intranasal/lung inhalation ("Long-Haul" Covid-19): proved helpful
- response of long-haul symptoms (malaise, fatigue, brain fog, myalgia and musculoskeletal pain, shortness of breath) ("Long-Haul" Covid-19; human, in vivo): responded reversibly
- symptoms on withdrawal and repeat treatment ("Long-Haul" Covid-19; treatment withdrawn, then repeated): Symptoms returned when the treatment was withdrawn, but responded to repeat treatment
- time to alleviation of upper respiratory tract congestion (Covid-19, Omicron strain; inhalation of 20 mg, one 0.1 ml spritz of the 6% solution per nostril, followed by insufflation): 5 to 10 min
- murine viral encephalomyelitis [1]: ameliorates

Structure (SMILES): CC1(C)CC(O)CC(C)(C)N1O [Tempol-H, the hydroxylamine reduced form of the nitroxide 4-hydroxy-2,2,6,6-tetramethylpiperidin-1-yloxy]
- effect of added direct intranasal/lung inhalation ("Long-Haul" Covid-19): proved helpful
